No end group written: not given here. *: point of attachment. Biotin = O=C1N[C@H]2[C@H](CS[C@H]2CCCCC(=O)*)N1
Experiments:
Type in all cases: binding, human
[1] = test system: WW domains of WWP2 expressed as GST fusion proteins; test: ELISA based cross affinity mapping, WW domains of WWP2; details: biotinylated peptide-streptavidin/alkaline phosphatase complex; GST fusion proteins; ELISA
Method: (§1) The 16 day mouse embryo cDNA expression library was diluted 1:1000 in SM solution (100 mM NaCl, 8 mM MgSOv4, 50 mM Tris HCl pH 7.5, 0.01% gelatin). To a sterile test tube, 2 μl of diluted mouse embryo library, 100 μl of 10 mM CaCl2, 100 μl of 10 mM MgCl2 and 100 μl of BL21(DE3)pLysE bacterial cells (grown overnight) were added and incubated for 30 minutes at 37° C. The contents of the tube were mixed with 3 ml of 0.6% top agarose, containing […] chloramphenicol, and poured onto a 2xYT plate (90 mm diameter). For a large primary screen, 10–20 plates were prepared with 3×10^4 pfu per plate. After 6 hours incubation at 37° C., a nitrocellulose filter soaked in 10 mM isopropyl-β-D-thiogalactopyranoside (IPTG) was overlaid on each plate and incubated 3–6 hours at 37° C. Before the filters were removed from the plates, they were marked asymmetrically with India ink in a 18 gauge syringe needle. The plates were stored at 4° C. until ready for the secondary screen. The filters were washed with PBS (137 mM NaCl, 2.7 mM KCl, 4.3 mM Na2HPO4, 1.4 mM KH2PO4)-0.05% Triton X-100 three times at room temperature, 15 minutes each wash, and then placed in a plastic bag containing non-specific blocking solution (PBS-2% BSA) for one hour. In the meantime, 1 ml of 1 mM biotinylated peptide in PBS-0.1% Tween 20 was added to 20 ml of 1 mg/ml streptavidin-alkaline phosphatase (SA-AP) in PBS-0.1% Tween 20 and incubated at 4° C. for 30 minutes. […] Excess biotin-binding sites would then be blocked by addition of 500 pmol biotin. […] Ten μl of 0.1 mM biotin would then be added, and the solution incubated for an additional 15 min.
(§2) To determine the ligand preferences of the novel WW omain-containing clones described in Sections 6.1 and 6.1.1, as well as addressing the issue of whether peptides containing PPPPY (SEQ ID NO:3)-like motifs derived from a variety of proteins could also serve as recognition units and bind to these clones, a cross affinity mapping experiment was performed (FIGS. 15A–D). The peptides shown in FIGS. 15A–D were synthesized, biotinylated, complexed with streptavidin-alkaline phosphatase, and tested in an ELISA based assay for their ability to bind to the twelve individual novel WW domains of WWP1, WWP2, WWP3 and WWP4 which were expressed as GST fusion proteins. The ELISA based cross-affinity experiments were performed essentially as described by Sparks et al. (1996, Proc. Natl. Acad. Sci. 93:1540–1544) with the following modifications. Briefly, microtiter wells were coated with 1–5 μg of fusion protein in 100 mM NaHCO3, blocked with SuperBlock TBS (Pierce) and washed four times with PBS, 0.05% Tween 20. Specific peptide-streptavidin/alkaline phosphatase complexes were added as above and unbound complexes washed five times with PBS, 0.05% Tween 20. Following addition of PNP substrate (p-nitrophenyl phosphate, Kirkegard & Perry Labs), peptide binding was quantitated after 30 min. at O.D. 405 nm. Relative binding measurements from three independent determinations were assigned to a scale as follows: O.D. units 0–0.5=(−), 0.5–1.0=(+), 1.0–2.0=(++), 2.0–3.0=(+++), >3.0=(++++). Peptide binding to human Fyn and Lyn SH3 and SH2 domains was assessed by a filter binding assay (see Section 6.1 and Sparks et al., 1996, Proc. Natl. Acad. Sci 93:1540–1544). Peptide sequences used in cross-affinity experiments correspond to segments of the following genes: RasGap (Database accession # P20936), AP-2 (P05549), p53BP-2 (U09582), IL-6Rα (P22272), voltage-gated chloride channel CLCN5 (X91906), IL-2Rγ (D111086), RSV (D10652), HTLV-1 (D13784), β-dystroglycan (L19711), Formin (X53599), amiloride-sensitive epithelial Na^+ channel ENaCα (P37089), ENaCβ (X87159) and ENaCγ (X87160), muscarinic acetylcholine receptor M4 AChR (P08173), and c-Abl (P00522). Src and Crk SH3 binding peptide sequences were derived from a phage display random peptide library screen (Section 6.1 and Sparks et al., 1996, Proc. Natl. Acad. Sci. 93:1540–1544).

[2] = test system: twelve individual novel WW domains of WWP1, WWP2, WWP3 and WWP4; test: ELISA based cross affinity mapping, whole panel of novel WW domains; details: biotinylated peptide-streptavidin/alkaline phosphatase complex, GST fusion proteins
Method: as §1, §2

[3] = test system: WW domains of WWP4 expressed as GST fusion proteins; test: ELISA based cross affinity mapping, WW domains of WWP4; details: biotinylated peptide-streptavidin/alkaline phosphatase complex; GST fusion proteins; ELISA
Method: as §1, §2

| Substance | binding to WW domains of WWP2 [1] | binding to the novel WW domains (WWP1, WWP2, WWP3, WWP4 panel) [2] | binding to WW domains of WWP4 [3] |
| --- | --- | --- | --- |
| Biotin-SGSGPGTPYPPPPEFY [WBP-2B] | none of the WW domains of these proteins specifically bind | no binding activity | none of the WW domains of these proteins specifically bind |
| Biotin-SGSGYVQPPPPPYPGPM [WBP-2A] | specifically bind | bound to several individual WW domains to varying degrees | specifically bind |
| Biotin-SGSGPGTPPPPYTVGPGY [WBP-1] | specifically bind | bound to several individual WW domains to varying degrees | specifically bind |

From patent US7279548B2, “Identification and isolation of novel polypeptides having WW domains and methods of using same” (Cytogen Corporation, priority 1996, dated 2007)
